# pIC50: −log10 of the molar value.
# Legend:
# [1] = target: Soluble extracts of P. falciparum (cysteine proteinase); assay: Proteolytic activity of P. falciparum soluble extracts, substrate Z-Phe-Arg-AFC; assay type: biochemical; conditions: read-out: IC50, proteolytic activity of P. falciparum extract
# Protocol: Soluble extracts of P. falciparum and P. vinckei were prepared and proteolytic activity was assayed with fluorogenic peptide substrate Z-Phe-Arg-AFC. […] The concentrations at which activity was inhibited by 50% (IC50) was calculated.
# Soluble extracts of P. falciparum and P. vinckei were prepared and proteolytic activity was assayed with fluorogenic peptide substrate Z-Phe-Arg-AFC. […] The concentration at which activity was inhibited by 50%. (IC50) was calculated.
# Soluble extracts of P. falciparum and P. vinckei were prepared and proteolytic activity was assayed with fluorogenic peptide substrate Z-Phe-Arg-AFC. […] The concentration at which activity was inhibited by 50% (IC50) was calculated.
# The concentration at which activity was inhibited by 50% (IC50) was calculated.
# [2] = test system: DBA/Lac mice injected with type II chick collagen; assay: Type II collagen arthritis in mice, oral 3-25 mg/kg/day (Example 14); assay type: in vivo; conditions: gavage 3 to 25 mg/kg/day in phosphate buffered saline, day 21 to day 35; scale 0-3
# Protocol: DBA/Lac mice were injected with 200 μg of type II chick collagen emulsified in Complete Freund's Adjuvant on day 0 and on day 21. Mu-Phe-HPhe-O-Ph was suspended in phosphate buffered saline and administered by gavage from day 21 until sacrifice at day 35. Doses of between 3 mg/kg/day and 25 mg/kg/day were used, with the daily dosage being held constant over time for each test. The severity of joint inflammation was evaluated grossly at seven day intervals beginning on day 21. The effect of oral administration of Mu-Phe-HPhe-O-Ph on the severity of bone lesions in adjuvant-induced arthritis was determined by evaluating osseous mineralization, periostat proliferation, bone erosion, joint space narrowing and osseous fragmentation. All lesions were scored on a scale of 0 (normal architecture) to 3 (severe or marked changes). Values calculated were mean values ±1 std. error of the mean.
# [3] = test system: DBA/Lac mice injected with type II chick collagen; assay: Type II collagen arthritis in mice, oral 10 mg/kg/day (Example 13); assay type: in vivo; conditions: gavage 10 mg/kg/day, day 21 to day 49
# Protocol: DBA/Lac mice were injected with 200 μg of type II chick collagen emulsified in Freund's complete adjuvant on day 0 and on day 21. Mu-Phe-HPhe-O-Ph was suspended in an ethanol solution which was then diluted to 10% (aq) and administered by gavage at a dose of 10 mg/kg/day from day 21 until sacrifice at day 49. The severity of joint inflammation was evaluated grossly at seven day intervals beginning on day 21. The effect of oral administration of Mu-Phe-HPhe-O-Ph on the severity of bone lesions in adjuvant-induced arthritis wa determined by evaluating osseous mineralization, periostat proliferation, bone erosion, joint space narrowing and osseous fragmentation. All lesions were scored on a scale of 0 (normal architecture) to 3 (severe or marked changes). Values calculated were means values ±1 std. error of the mean. […] The effect of oral administration of Mu-Phe-HPhe-O-Ph on the histological aspects of adjuvant-induced arthritis was determined by evaluating inflammation, focul ulcers, tibiotarsal joint cartilage destruction, bone destruction and periosteal proliferation. Inflammation was scored on a scale of 0 (no inflammation) to 3 (severe) based on the extent of edema and cell infiltration. Focul ulcer cartilage destruction was measured as the percent of articular cartilage surfaces with focal destruction which exposed underlying subchondral bone. […]
# bone resorption = assay: In vivo bone resorption by urinary 14C-tetracycline excretion in rats
# Protocol: Treatment of Osteo Arthritis with Mu-Phe-HPhe-O-Ph. The skeletons of young growing rats were radioactively labelled by injections with ^14 C-tetracycline over a 10 day period. The amount of bone resorption was then determined each day as the amount of radioactivity excreted in the urine. After 10 days of control excretion, test compounds were administered for three days subcutaneously and their effects on the daily excretion of tetracycline were determined. Tested compounds were dissolved in DMSO/PEG at a concentration of 25 mg/ml and were injected once per day subcutaneously in a volume of 2 ml/kg. Treatment of Osteo Arthritis with Mu-Leu-HPhe-O-Ph. The skeletons of young growing rats were radioactively labelled by injections with ^14 C-tetracycline over a 10 day period. The amount of bone resorption was then determined each day as the amount of radioactivity excreted in the urine. After 10 days of control excretion, test compounds were administered for three days subcutaneously and their effects on the daily excretion of tetracycline were determined. Tested compounds were dissolved in DMSO/PEG at a concentration of 25 mg/ml and were injected once per day subcutaneously in a volume of 2 ml/kg.
compound,measurement,setting,value
"O=C(O)Cc1ccccc1OCC(=O)[C@H](CCc1ccccc1)NC(=O)[C@H](Cc1ccccc1)NC(=O)N1CCOCC1 [Mu-Phe-HPhe-O-Ph, (4-morpholinylcarbonyl)-L-phenylalanyl-L-homophenylalanyl-(2-carboxymethyl)phenoxymethyl ketone]",pIC50,[1],8.52
same,bone lesion severity values vs control animals,[2],significantly (p<0.05) lower than the values of control animals
same,histological aspects values vs control animals,"[3]; inflammation, focul ulcers, tibiotarsal joint cartilage destruction, bone destruction, periosteal proliferation",significantly (p<0.05) lower than the values of control animals
same,bone lesion severity values vs control animals,"[3]; osseous mineralization, periostat proliferation, bone erosion, joint space narrowing, osseous fragmentation, scale 0-3",significantly (p<0.05) lower than the values of control animals
same,inhibition of bone resorption in vivo as measured by tetracycline excretion,"bone resorption; subcutaneous once per day for three days, 25 mg/ml in DMSO/PEG, 2 ml/kg",as great as that of a maximal dose of calcitonin
same,time of maximum effect after dosing commenced,"bone resorption; subcutaneous once per day, 25 mg/ml, 2 ml/kg",24 h
same,findings at the sites of injection at end of experiment,"bone resorption; subcutaneous, DMSO/PEG, three days, histology: inflammation of subcutaneous fat, tissue necrosis",lesions were visible at the sits of injection
